The values below come from patent publication US6638968B1, “Use of prodigiosin for treating diabetes mellitus” (Korea Research Institute of Bioscience and Biotechnology, priority 2000, dated 2003).

What all share (assay type): in vivo, mouse
Data set [1] relates to NOD mice. The data set can be described thus: Blood glucose of NOD mice (plasma, blood biochemical analyzer). The note with it: prodigiosin-injected NOD mice, 10 mg/kg intraperitoneally. As to the method:
FIG. 3 illustrates decrease of the blood glucose by administration of prodigiosin. After we isolated plasma from NOD mouse, the blood glucose was measured with the blood biochemical analyzer (Cibacorning, USA).
Prodigiosin was intraperitoneally injected in 10 mg/kg from 8 weeks to 24 weeks of age, and the urine glucose was measured with uropaper (Eiken Chemical Co. Ltd., Japan) every week. In control group of NOD mice, not receiving prodigiosin, the urine glucose was first detected from 15 weeks of age, and at 24 weeks, 80% of the mice had the urine glucose detected (FIG. 2). […] Average blood glucose of non-prodigiosin-injected NOD mice was 500 mg/dl, which means diabetes mellitus crisis, and that of prodigiosin-injected NOD mice was 100 mg/dl, which means the normal condition (FIG. 3).

The test system of data set [2] is NOD mice. The data set can be described thus: Insulitis: lymphocyte infiltration into pancreatic ducts, hematoxylin/eosin staining. The note with it: prodigiosin-injected NOD mice. How it is done:
In insulin-dependent diabetes mellitus, insulitis may be induced by lymphocyte infiltration into pancreatic ducts and destruction of beta cells thereby. Macrophages and T cells are the major infiltrating lymphocytes, and these immune cells destroy beta cells. The pancreas from both the prodigiosin-injected and the non-injected NOD mice were preserved in formalin and to preparation. After the hematoxylin/eosin staining, the lymphocyte infiltration level was measured. 1, 2, and 3 point were respectively given to 25, 50, and 75% of insulitis progression, and the average value of insulitis progression was calculated (FIG. 4). The NOD mice, not receiving prodigiosin, had more than 2 point, or over 50% of infiltration, while the infiltration level of the prodigiosin-injected mice was about 1 point, or under 20% of infiltration.

Data set [3] deals with NOD mice. The data set can be described thus: Side effects of prodigiosin in NOD mice (body weight, mortality, pathological test of liver, kidney, lung). As to the method:
Because of diabetes, NOD mice have their weight decrease and come to die in 2 weeks after symptoms of diabetes.
FIG. 7 illustrates that the prodigiosin has no side effect.
In NOD mice receiving prodigiosin from 8 weeks to 24 weeks age, the negative effects of the prodigiosin were examined (FIG. 7). […] After their liver, kidney, and lung had been extracted from the prodigiosin-injected NOD mice, a pathological test was performed using the hematoxylinleosin staining.

Molecules are shown by their SMILES.

As to `CCCCCC1=C/C(=C/c2[nH]c(-c3ccc[nH]3)cc2OC)N=C1C` [prodigiosin], the average blood glucose in the data set on NOD mice [1] was determined as 100 mg/dL. Besides, the lymphocyte infiltration result with NOD mice [2] (pancreas, hematoxylin/eosin staining) was “under 20%”. Besides, the “infiltration level (average insulitis progression score)” value with NOD mice [2] (1, 2, 3 point = 25, 50, 75% insulitis progression) is given as “about 1 point”. In the data set with NOD mice [3] (NOD mice receiving prodigiosin), the mortality entry was “any mice were not found dead”; the “toxicity to kidney, liver and lung” value is “no toxicity to kidney, liver and lung”. For the same compound, the body weight result with NOD mice [3] (NOD mice receiving prodigiosin from 8 to 24 weeks of age) is listed as “didn't decrease”. For the same compound, the “toxicity to kidney (glomerulus and nephric tubule, pathological test)” value with NOD mice [3] (NOD mice receiving prodigiosin from 8 to 24 weeks of age, hematoxylin/eosin staining) was “no toxicity to kidney”.
